# According to patent US20210400967A1, “COMPOSITIONS COMPRISING PYRIDINE CARBOXYLATE HERBICIDES WITH GLYPHOSATE OR GLUFOSINATE” (Corteva Agriscience LLC, priority 2018, published 2021):
# Assays:
# Format in all cases: in vivo
# [1] = system: Euphorbia heterophylla (poinsettia); assay: Greenhouse postemergence herbicidal effect, poinsettia (EPHHL); conditions: Example 5; Glufosinate 70 g ai/ha alone; 20-22 d
# From the text: (§1) Greenhouse Trial Methodology—Evaluation of Postemergence Herbicidal Effect
# (§2) Seeds of the desired test plant species were planted in a 90:10% v/v (volume/volume) mixture of PRO-MIX® BX (Premier Tech Horticulture, Quakertown, Pa., USA) and PROFILE® GREENS GRADE™ (Profile Products LLC, Buffalo Grove, Ill., USA) planting mixture, which typically has a pH of 5.2 to 6.2 and an organic matter content of at least 50 percent, in plastic pots with a surface area of 103.2 square centimeters (cm^2). In some aspects, to ensure good germination and healthy plants, a fungicide treatment and/or other chemical or physical treatment was applied. The plants were grown for 7-36 days (d) in a greenhouse with an approximate 14-hour (h) photo-period which was maintained at about 23° C. during the day and 22° C. during the night. Nutrients and water were added on a regular basis and supplemental lighting was provided with overhead metal halide 1000-Watt lamps as necessary. The plants were employed for testing when they reached the second or third true leaf stage.
# (§3) Emulsifiable concentrates of each of each pyridine carboxylate herbicide (Compound A or Compound B) were prepared at 100 grams acid equivalent per liter (g ae/L). The emulsifiable concentrates also included a safener, cloquintocet-mexyl, at 120 grams active ingredient per liter (g ai/L). […]
# (§4) The treated plants and control plants were placed in a greenhouse as described above and watered by sub-irrigation to prevent wash-off of the test compounds. After 20-22 d, the condition of the test plants as compared with that of the control plants was determined visually and scored on a scale of 0 to 100 percent where 0 corresponds to no injury and 100 corresponds to complete kill.
# [2] = system: Ipomoea hederacea (ivyleaf morningglory); assay: Greenhouse postemergence herbicidal effect, ivyleaf morningglory (IPOHE); conditions: Example 5; Glufosinate 70 g ai/ha alone; 20-22 d
# From the text: as §1, §2, §3, §4
# [3] = system: Stellaria media (chickweed); assay: Greenhouse postemergence herbicidal effect, chickweed (STEME); conditions: Example 5; Glufosinate 70 g ai/ha alone; 20-22 d
# From the text: as §1, §2, §3, §4
# [4] = system: Brassica napus (winter rape); assay: Greenhouse postemergence herbicidal effect, winter rape (BRSNW); conditions: Example 6; Glufosinate 112.5 g ai/ha alone; 20-22 d
# From the text: as §1, §2
# (§5) Emulsifiable concentrates of each of each pyridine carboxylate herbicide (Compound A or Compound B) were prepared at 100 grams acid equivalent per liter (g ae/L). The emulsifiable concentrates also included a safener, cloquintocet-mexyl, at 120 grams active ingredient per liter (g ai/L). An aliquot of each emulsifiable concentrate was placed in a 25 mL glass vial and diluted with an aqueous mixture of 1.25% (v/v) ACTIROB® B esterified rapeseed oil (Bayer Crop Science, Research Triangle Park, N.C., USA) or MSO® Concentrate with LECI-TECH® methylated soybean oil (Loveland Products, Loveland, Colo., USA) to obtain concentrated stock solutions at the highest application rate for each herbicide, based upon a 12 milliliter (mL) application volume at a rate of 187 liters per hectare (L/ha). The concentrated stock solutions were further diluted with an aqueous mixture of 1.25% v/v ACTIROB® B or MSO® Concentrate with LECI-TECH® to obtain stock solutions at reduced application rates for each herbicide. Spray solutions of the herbicide combinations (Compound A or Compound B plus glyphosate or glufosinate) were prepared by adding weighed amounts or aliquots of the glyphosate or glufosinate to the stock solutions of Compound A or Compound B to form 12-mL spray solutions in two-way combinations.
# (§6) The spray solutions were applied to the plant material with an overhead Mandel track sprayer equipped with 8002E nozzles calibrated to deliver 187 L/ha over an application area of 0.503 square meters (m^2) at a spray height of 18 inches (43 centimeters (cm)) above the average plant canopy. Control plants were sprayed in the same manner with the solvent blank. All pyridine carboxylate herbicide (component a) application rates are given as “g ae/ha” and all glyphosate or glufosinate (component b) application rates are given as “g ai/ha.”
# as §4
# [5] = system: Chenopodium album L. (common lambsquarters); assay: Greenhouse postemergence herbicidal effect, common lambsquarters (CHEAL); conditions: Glufosinate 112.5 g ai/ha alone, 20-22 d
# From the text: as §1, §2, §5, §6, §4
# [6] = system: Salsola kali (Russian thistle); assay: Greenhouse postemergence herbicidal effect, Russian thistle (SASKR); conditions: Example 6; Glufosinate 112.5 g ai/ha alone; 20-22 d
# From the text: as §1, §2, §5, §6, §4
# [7] = system: Hordeum vulgare (spring barley); assay: Greenhouse postemergence phytotoxicity on crop, spring barley (HORVS); conditions: Example 6; Glufosinate 112.5 g ai/ha alone; 20-22 d
# From the text: as §1, §2, §5, §6, §4
# [8] = system: Cyperus esculentus (nutsedge); assay: Greenhouse postemergence herbicidal effect, nutsedge (CYPES); conditions: Example 5; Glufosinate 70 g ai/ha alone; 20-22 d
# From the text: as §1, §2, §3, §4
# [9] = system: Kochia scoparia (kochia); assay: Greenhouse postemergence herbicidal effect, kochia (KCHSC); conditions: 20-22 d
# From the text: as §1, §2, §5, §6, §4
# [10] = system: Brassica napus (spring rape); assay: Greenhouse postemergence herbicidal effect, spring rape (BRSNN); conditions: Example 4; Glufosinate 112.5 g ai/ha alone; 20-22 d
# From the text: as §1, §2, §5, §6, §4
# [11] = system: Setaria faberi (giant foxtail); assay: Greenhouse postemergence herbicidal effect, giant foxtail (SETFA); conditions: Example 4; Glufosinate 112.5 g ai/ha alone; 20-22 d
# From the text: as §1, §2, §5, §6, §4
# [12] = system: Helianthus annuus (common sunflower); assay: Greenhouse postemergence herbicidal effect, common sunflower (HELAN); conditions: Example 5; Glufosinate 70 g ai/ha alone; 20-22 d
# From the text: as §1, §2, §3, §4
# [13] = system: Echinochloa crus-galli (barnyardgrass); assay: Greenhouse postemergence herbicidal effect, barnyardgrass (ECHCG); conditions: Example 5; Glufosinate 70 g ai/ha alone; 20-22 d
# From the text: as §1, §2, §3, §4
# [14] = system: Cirsium arvense (Canadian thistle); assay: Greenhouse postemergence herbicidal effect, Canadian thistle (CIRAR); conditions: 20-22 d
# From the text: as §1, §2, §5, §6, §4
# [15] = system: Triticum aestivum (spring wheat); assay: Greenhouse postemergence phytotoxicity on crop, spring wheat (TRZAS); conditions: Example 6; Glufosinate 112.5 g ai/ha alone; 20-22 d
# From the text: as §1, §2, §5, §6, §4
# [16] = system: Amaranthus retroflexus (pigweed); assay: Greenhouse postemergence herbicidal effect, pigweed (AMARE); conditions: Example 6; Glufosinate 112.5 g ai/ha alone; 20-22 d
# From the text: as §1, §2, §5, §6, §4
# [17] = system: Polygonum convolvulus (wild buckwheat); assay: Greenhouse postemergence herbicidal effect, wild buckwheat (POLCO); conditions: 20-22 d
# From the text: as §1, §2, §5, §6, §4
# [18] = system: Sinapis arvensis (wild mustard); assay: Greenhouse postemergence herbicidal effect, wild mustard (SINAR); conditions: Example 6; Glufosinate 112.5 g ai/ha alone; 20-22 d
# From the text: as §1, §2, §5, §6, §4
# [19] = system: Abutilon theophrasti (velvetleaf); assay: Greenhouse postemergence herbicidal effect, velvetleaf (ABUTH); conditions: Example 4; Glufosinate 112.5 g ai/ha alone; 20-22 d
# From the text: as §1, §2, §3, §4
# [20] = system: Viola tricolor (wild pansy); assay: Greenhouse postemergence herbicidal effect, wild pansy (VIOTR); conditions: 20-22 d
# From the text: as §1, §2, §5, §6, §4
# [21] = system: Sorghum vulgare (grain sorghum); assay: Greenhouse postemergence herbicidal effect, grain sorghum (SORVU); conditions: Example 5; Glufosinate 70 g ai/ha alone; 20-22 d
# From the text: as §1, §2, §3, §4
# [22] = system: Matricaria chamomilla (wild chamomile); assay: Greenhouse postemergence herbicidal effect, wild chamomile (MATCH); conditions: Example 6; Glufosinate 112.5 g ai/ha alone; 20-22 d
# From the text: as §1, §2, §5, §6, §4
# [23] = system: Rumex obtusifolius (broad-leaf dock); assay: Greenhouse postemergence herbicidal effect, broad-leaf dock (RUMOB); conditions: Example 5; Glufosinate 70 g ai/ha alone; 20-22 d
# From the text: as §1, §2, §3, §4
# [24] = Example 4, Glufosinate 112.5 g ai/ha alone
# [25] = Example 5, Glufosinate 70 g ai/ha alone
# [26] = Example 6, Glufosinate 112.5 g ai/ha alone
compound,measurement,setting,value
"CP(=O)(O)CCC(N)C(=O)O (stereo not shown) [Glufosinate, 2-amino-4-(hydroxy(methyl)phosphinyl)butanoic acid]","% visual injury, Obs",[1],80%
same,"% visual injury, Obs",[2],82%
same,"% visual injury, Obs",[3],68%
same,"% visual injury, Obs",[4],20%
same,"% visual injury, Obs",[5]; Example 4,5%
same,"% visual injury, Obs",[5]; Example 6,5%
same,"% visual injury, Obs",[6],53%
same,"% visual injury, Obs",[7],35%
same,"% visual injury, Obs",[8],13%
same,"% visual injury, Obs",[9]; [24],10%
same,"% visual injury, Obs",[9]; [25],15%
same,"% visual injury, Obs",[9]; [26],25%
same,"% visual injury, Obs",[10],33%
same,"% visual injury, Obs",[11],33%
same,"% visual injury, Obs",[12],98%
same,"% visual injury, Obs",[13],30%
same,"% visual injury, Obs",[14]; [24],8%
same,"% visual injury, Obs",[14]; [25],75%
same,"% visual injury, Obs",[14]; [26],73%
same,"% visual injury, Obs",[15],35%
same,"% visual injury, Obs",[16],65%
same,"% visual injury, Obs",[17]; [24],10%
same,"% visual injury, Obs",[17]; [25],70%
same,"% visual injury, Obs",[17]; [26],15%
same,"% visual injury, Obs",[18],25%
same,"% visual injury, Obs",[19],20%
same,"% visual injury, Obs",[20]; [24],23%
same,"% visual injury, Obs",[20]; [25],20%
same,"% visual injury, Obs",[21],58%
same,"% visual injury, Obs",[22],65%
same,"% visual injury, Obs",[23],73%
